Tests used:
[1] = tested on: acne vulgaris or acne rosacea; assay: Clinical studies of topical formulations in acne patients, compared to placebo or to nicotinamide alone; format: in vivo, human; conditions: over one thousand acne patients
[2] = tested on: skin; conditions: concentrations 1.0% to 10%

| Structure (SMILES) | efficacy in treating acne vulgaris or acne rosacea compared to placebo [1] | irritation on continuous or regular topical application [2] |
| --- | --- | --- |
| NC(=O)c1cccnc1 [nicotinamide] | modestly effective | – |
| O=C(O)c1cccnc1 [nicotinic acid] | – | too irritating |

— patent publication US20050169948A1, “Method and compositions for treatment of acne vulgaris and acne rosacea” (priority 2004, published 2005)
